Test results published in patent US20250059232A1, “PENTAPEPTIDE AND USE THEREOF” (ENSOL BIOSCIENCES INC., priority 2021, published 2025).

Legend:
[1] = Stability test: HPLC relative purity of peptide dissolved in buffer, by pH and temperature; type: physicochemical
Procedure: For Example 1 and Comparative Example 1, stability tests according to pH for each temperature were performed.
Stability tests for each peptide were performed by liquid chromatography purity analysis for each temperature and each pH according to analysis timing (initial, 24 hours, 130 hours). […] Samples were analyzed by injecting 20 ul of each sample with an auto-sample injector, and the analysis column was Inspire C18 (4.6×250 mm, […], 12 nm) manufactured by Dikma. The analysis temperature was 40° C., and a UV wavelength of 215 nm was used.
On the basis of the HPLC analysis results, relative purity was calculated for Comparative Example 1 and Example 1 for each storage condition. The relative purity is the percentage of measured purity changing according to the storage period, with the initial purity being set to 100% for each sample. FIGS. 1 and 2 are graphs showing the results of stability tests for Example and Comparative Example stored at a temperature of 25° C., in which FIG. 1 is a graph of a test result for 24 hours of storage, and FIG. 2 is a graph of a test result for 130 hours of storage. FIGS. 3 and 4 are graphs showing the results of stability tests for Example and Comparative Example stored at 40° C., in which FIG. 3 is a graph of a test result for 24 hours of storage, and FIG. 4 is a graph of a test result for 130 hours of storage. In each graph, the x-axis represents the test group by pH and the y-axis represents the relative purity […].

MDA-MB-231 = MDA-MB-231 xenograft in BalB/c nude mouse: survival rate; type: in vivo; conditions: 100 mg/kg subcutaneously 3 times weekly, co-administered with paclitaxel 20 mg/kg once weekly
Procedure: To investigate survival rates of the paclitaxel-only administration group and the group co-administered with paclitaxel and the peptide of Example 1, experiments described below were performed. 5×10^6 cells/head of the human triple negative breast cancer cell line MDA-MB-231 were mixed with Matrigel and PBS (1:1). 100 ul of the mixture was injected into the right third fat pad of 7-week-old female BalB/c nude mouse. After the transplantation, drug administration started from an average tumor size of 70 mm^3. Paclitaxel 20 mg/kg was administered once weekly, and the peptide 100 mg/kg of Example 1 was administered subcutaneously 3 times weekly at 48-hour intervals, 48 hours after the paclitaxel administration. Each test group was administered for 12 weeks and animal survival was observed daily. FIG. 10 is a graph illustrating survival rates over time after sample administration in animal experimentation. In FIG. 10, the x-axis represents the elapsed time (days) after administration and the y-axis represents survival rates (%). […] In the case of the group co-administered with the peptide of Example 1, the first deceased mouse occurred on Day 60 of administration.

[2] = test system: PC3 cells co-cultured with NK92 cells; assay: PC3/NK92 co-culture: Granzyme B expression by immuno-fluorescence staining; type: cell-based, human; conditions: 300 uM with 10 μg/ml anti-PD-L1; 12 hours
Procedure: The experiment described below was performed to identify the tumor suppression mechanism of the combination treatment of the peptide of Example 1 and anti-PD-L1, which is an immune checkpoint inhibitor. First, prostate cancer cell lines PC3 (ATCC) and NK92 (Immunotherapy Research Center, Korea Research Institute of Bioscience and Biotechnology) were co-cultured. 7.8×10^4 PC3 cells were seeded in 4-well chambers and stabilized by culturing overnight, and the PC3 cells were treated with 10 μg/ml of the anti-PD-L1 and 300 uM of the peptide of Example 1 for each condition while the same number of NK92 cells were additionally seeded. After 12 hours, the NK92 cells were removed by washing, and only tumor cells were fixed. Next, the expression level of Granzyme B was determined through immuno-fluorescence staining. The Granzyme B expression levels were calculated as proportions relative to the control. FIG. 12 is a graph showing a Granzyme B expression level for each test group in an anticancer effect evaluation test, in which the x-axis represents the test group and the y-axis represents the Granzyme B expression level (%) relative to the control group.

A549 = A549 cell viability (CCK-8) in NK92 co-culture with anti-PD-L1; type: cell-based, human; conditions: 300 uM with 10 ug/ml anti-PD-L1, 24/48 hours of co-culturing
Procedure: The experiment described below was performed to evaluate the tumor cell proliferation inhibitory effect of the combination treatment of the peptide of Example 1 and the anti-PD-L1, which is an immune checkpoint inhibitor. First, 5×10^3 cells of a human prostate cancer cell line PC3, 5×10^3 cells of a human lung cancer cell line A549 (Korean Cell Line Bank), and 1×10^4 cells of a human triple negative breast cancer cell line MDA-MB-231 (ATCC) were seeded in 96 wells and stabilized by culturing overnight. Then, the seeded cells were treated with 10 ug/ml of the anti-PD-L1 and 300 uM of the peptide of Example 1, for each condition while NK92 cells for 5×10^3 cells of each of the PC3 cell line and the MDA-MB-231 cell line and 2.5×10^3 cells of the A549 cell line were additionally seeded. After 24/48/72 hours of co-culturing (for PC3 and MDA-MB-231) and 24/48 hours of co-culturing (for A549), the NK92 cells were removed by washing, and the cancer cell viability was measured by CCK-8 addition. FIG. 15 is a graph illustrating the changes in PC3 cell viability over culturing time for each test group in an anticancer effect evaluation test. In FIG. 15, the x-axis represents culturing time and the y-axis represents cell viability (%). FIG. 16 is a graph illustrating the changes in A549 cell viability over culturing time for each test group in an anticancer effect evaluation test. […]

Substance: Ac-QLHLD-OH [Example 1, acetyl-QLHLD]
- Stability (summary in words) ([1]; liquid state, pH 2-9, 25 and 40° C., up to 130 hours): extremely stable regardless of storage conditions
- Relative purity ([1]; pH 2, 25 ± 2° C., RH 60 ± 5%, storage 0 hours (initial set to 100%)): 100.0%
- Relative purity ([1]; pH 2, 25 ± 2° C., RH 60 ± 5%, storage 24 hours): 99.7%
- Relative purity ([1]; pH 2, 25 ± 2° C., RH 60 ± 5%, storage 130 hours): 99.9%
- Relative purity ([1]; pH 2, 40 ± 2° C., RH 75 ± 5%, storage 0 hours (initial set to 100%)): 100.0%
- Relative purity ([1]; pH 2, 40 ± 2° C., RH 75 ± 5%, storage 24 hours): 99.4%
- Relative purity ([1]; pH 2, 40 ± 2° C., RH 75 ± 5%, storage 130 hours): 95.8%
- Relative purity ([1]; pH 5, 25 ± 2° C., RH 60 ± 5%, storage 0 hours (initial set to 100%)): 100.0%
- Relative purity ([1]; pH 5, 25 ± 2° C., RH 60 ± 5%, storage 24 hours): 100.0%
- Relative purity ([1]; pH 5, 25 ± 2° C., RH 60 ± 5%, storage 130 hours): 100.0%
- Relative purity ([1]; pH 5, 40 ± 2° C., RH 75 ± 5%, storage 0 hours (initial set to 100%)): 100.0%
- Relative purity ([1]; pH 5, 40 ± 2° C., RH 75 ± 5%, storage 24 hours): 100.0%
- Relative purity ([1]; pH 5, 40 ± 2° C., RH 75 ± 5%, storage 130 hours): 100.0%
- Relative purity ([1]; pH 7, 25 ± 2° C., RH 60 ± 5%, storage 0 hours (initial set to 100%)): 100.0%
- Relative purity ([1]; pH 7, 25 ± 2° C., RH 60 ± 5%, storage 24 hours): 100.0%
- Relative purity ([1]; pH 7, 25 ± 2° C., RH 60 ± 5%, storage 130 hours): 100.0%
- Relative purity ([1]; pH 7, 40 ± 2° C., RH 75 ± 5%, storage 0 hours (initial set to 100%)): 100.0%
- Relative purity ([1]; pH 7, 40 ± 2° C., RH 75 ± 5%, storage 24 hours): 100.0%
- Relative purity ([1]; pH 7, 40 ± 2° C., RH 75 ± 5%, storage 130 hours): 100.0%
- Relative purity ([1]; pH 9, 25 ± 2° C., RH 60 ± 5%, storage 0 hours (initial set to 100%)): 100.0%
- Relative purity ([1]; pH 9, 25 ± 2° C., RH 60 ± 5%, storage 24 hours): 100.0%
- Relative purity ([1]; pH 9, 25 ± 2° C., RH 60 ± 5%, storage 130 hours): 100.0%
- Relative purity ([1]; pH 9, 40 ± 2° C., RH 75 ± 5%, storage 0 hours (initial set to 100%)): 100.0%
- Relative purity ([1]; pH 9, 40 ± 2° C., RH 75 ± 5%, storage 24 hours): 99.9%
- Relative purity ([1]; pH 9, 40 ± 2° C., RH 75 ± 5%, storage 130 hours): 99.8%
- Day of administration on which the first deceased mouse occurred (MDA-MB-231): 60 days
- Granzyme B expression in tumor cells compared to the group treated with only anti-PD-L1 [2]: increased significantly
- Cancer cell viability compared to the group treated with only anti-PD-L1 (A549): significant decrease in cancer cell viability
